Data taken from US20240216357A1 (SICHUAN HUIYU PHARMACEUTICAL CO., LTD., priority 2021, published 2024).
Where a name gives a salt, the structure may show the parent alone. Read-outs that look alike come from different tables or passages of the source.

Key:
LSD1 = LSD1 (Homo sapiens (Human), UniProt O60341); experiment: LSD1 enzyme activity detection (HTRF); type: biochemical; settings: HTRF, H3K4me1 substrate; read-out: Inhibition of enzymatic activity of LSD1 IC50
NCI-H1417 cells = experiment: In vitro cell proliferation detection (CellTiter-Glo, 7 days); type: cell-based; settings: NCI-H1417 cells, 7 days, CellTiter-Glo, read-out: NCI-H1417 proliferation inhibition IC50
CYP3A4 [1] = target: T1, CYP3A4 (Homo sapiens (Human), UniProt P08684); settings: microsomes
T1 sequence (P08684 whole entry): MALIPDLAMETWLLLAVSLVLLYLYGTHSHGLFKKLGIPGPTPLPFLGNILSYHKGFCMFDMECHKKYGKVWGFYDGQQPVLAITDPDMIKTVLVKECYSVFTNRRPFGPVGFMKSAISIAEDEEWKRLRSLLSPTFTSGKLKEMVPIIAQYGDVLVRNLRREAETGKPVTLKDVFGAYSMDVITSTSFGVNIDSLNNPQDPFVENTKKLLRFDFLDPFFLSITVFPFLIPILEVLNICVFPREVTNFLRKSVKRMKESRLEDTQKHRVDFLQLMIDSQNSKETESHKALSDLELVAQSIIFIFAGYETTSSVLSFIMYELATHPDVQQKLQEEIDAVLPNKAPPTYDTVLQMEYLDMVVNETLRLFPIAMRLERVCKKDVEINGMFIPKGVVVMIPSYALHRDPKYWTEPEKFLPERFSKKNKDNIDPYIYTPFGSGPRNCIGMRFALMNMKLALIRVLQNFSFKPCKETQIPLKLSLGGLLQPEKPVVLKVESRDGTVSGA

[2] = target: T2, voltage-gated potassium ion channel hERG (Homo sapiens (Human), UniProt Q12809)
T2 sequence (Q12809 whole entry): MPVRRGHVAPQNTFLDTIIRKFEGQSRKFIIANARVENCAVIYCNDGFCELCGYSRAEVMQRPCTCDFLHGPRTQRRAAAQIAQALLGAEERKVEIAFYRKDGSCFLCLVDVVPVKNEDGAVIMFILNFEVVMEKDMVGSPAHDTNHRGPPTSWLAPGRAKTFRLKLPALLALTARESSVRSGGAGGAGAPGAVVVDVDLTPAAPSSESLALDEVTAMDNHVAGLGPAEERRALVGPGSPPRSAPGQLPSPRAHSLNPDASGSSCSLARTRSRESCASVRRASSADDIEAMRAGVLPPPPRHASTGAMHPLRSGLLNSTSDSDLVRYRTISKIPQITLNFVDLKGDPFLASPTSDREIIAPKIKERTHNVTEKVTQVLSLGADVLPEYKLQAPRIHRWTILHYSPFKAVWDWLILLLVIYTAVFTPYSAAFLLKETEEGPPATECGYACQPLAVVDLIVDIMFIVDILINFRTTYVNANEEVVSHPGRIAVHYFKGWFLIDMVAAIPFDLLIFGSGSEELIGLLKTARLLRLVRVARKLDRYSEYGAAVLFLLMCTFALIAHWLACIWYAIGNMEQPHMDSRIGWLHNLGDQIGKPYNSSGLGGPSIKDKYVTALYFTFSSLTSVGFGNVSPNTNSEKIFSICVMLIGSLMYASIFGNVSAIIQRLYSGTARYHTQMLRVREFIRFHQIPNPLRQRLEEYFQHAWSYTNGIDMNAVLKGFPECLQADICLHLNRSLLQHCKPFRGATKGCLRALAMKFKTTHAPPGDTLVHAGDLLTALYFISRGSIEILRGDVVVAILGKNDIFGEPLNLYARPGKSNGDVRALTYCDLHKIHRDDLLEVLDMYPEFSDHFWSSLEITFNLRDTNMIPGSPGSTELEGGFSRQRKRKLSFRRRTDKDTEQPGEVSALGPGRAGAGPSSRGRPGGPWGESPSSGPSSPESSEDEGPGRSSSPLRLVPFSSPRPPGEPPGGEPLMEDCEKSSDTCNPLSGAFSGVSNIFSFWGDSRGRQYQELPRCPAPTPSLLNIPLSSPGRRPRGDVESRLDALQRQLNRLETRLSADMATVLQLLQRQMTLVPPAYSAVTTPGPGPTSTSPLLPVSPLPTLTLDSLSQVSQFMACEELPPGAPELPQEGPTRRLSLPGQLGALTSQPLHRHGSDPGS

[3] = rat, in vivo; for F: male, SD
in vivo = settings: male, SD, rat
Rat PK test (IV and PO) = settings: for Cl / F: Male SD rats; for F: PO vs IV; for AUC(0-inf) / Cmax / half-life / Vd: male, SD, rat, plasma; for Vd: intravenous
Caco-2 permeability test = settings: human, Caco-2
CYP3A4 [4] = target: T1, CYP3A4; experiment: CYP 450 enzyme inhibition test (mixed human liver microsomes, LC-MS/MS)
in vitro = settings: human, Caco-2
[5] = target: T2, voltage-gated potassium ion channel hERG; experiment: hERG inhibition test (manual patch-clamp)
Caco-2 cells = experiment: Caco-2 permeability test; settings: for Mean Papp A to B: Caco-2, A to B; for Mean Papp A to B / Mean Papp B to A: 120 min; for Mean Papp B to A: Caco-2, B to A
[6] = read-out: CYP3A4-T IC50, mixed human liver microsomes, NADPH, CYP3A4-T probe substrate
[7] = read-out: hERG IC50, manual patch-clamp
Throughout, for Cmax: test concentration or dose not given here.

Cc1noc2cc(-c3c(-c4ccc(C#N)c(F)c4)nc(N4C5CCC4CC(N)C5)n4ccnc34)c(F)cc12 (centres unmarked) [Example 118, 4-(5-(3-amino-8-azabicyclo [3.2.1]octane-8-yl)-8-(5-fluoro-3-methylbenzo[d]isoxazol-6-yl)imidazolo[1,2 c]pyrimidin-7-yl)-2-fluorobenzonitrile]
IC50 (LSD1): 0.27 ± 0.01 nM | IC50 (NCI-H1417 cells; Homo sapiens, 168 h): 0.6 nM | IC50 (CYP3A4 [1]): 8680 nM | IC50 [2]: 13200 nM | F [3]: 12.1% | Cl [3]: 56.1 | AUC(0-inf) (in vivo): 192 ng·h/mL | Cmax (in vivo): 26.9 ng/mL | Vd (in vivo): 20 L/kg | half-life (in vivo): 4.67 h

COc1ccc(-c2c(-c3ccc(C#N)c(F)c3)nc(N3C4CCC3CC(N)C4)n3ccnc23)cc1O (centres unmarked) [Example 155, 4-(5-(3-amino-8-azadicyclo[3.2.1]octane-8-yl)-8-(3-hydroxy-4-methoxyphenyl)imidazolo[1,2-c]pyrimidin-7-yl)-2-fluorobenzonitrile hydrochloride]
IC50 (LSD1): 0.2 ± 0.1 nM | IC50 (NCI-H1417 cells; Homo sapiens, 168 h): 0.352 nM | IC50 (CYP3A4 [1]): 18000 nM

COc1ccc(-c2c(-c3ccc(C#N)c(F)c3)nc(N3CCC(N)CC3)n(C)c2=O)cc1F [(CC90011), reference compound]
Cl (Rat PK test (IV and PO)): 94.5 mL/min/kg | F (Rat PK test (IV and PO)): 14.3% | AUC(0-inf) (Rat PK test (IV and PO)): 132 ng·h/mL | Cmax (Rat PK test (IV and PO)): 26 ng/mL | half-life (Rat PK test (IV and PO)): 2.32 h | Vd (Rat PK test (IV and PO)): 19.1 L/kg | Papp A→B at 120 min (Caco-2 permeability test): 7.26 ×10⁻⁶ cm/s | Papp B→A at 120 min (Caco-2 permeability test): 41 ×10⁻⁶ cm/s | IC50 (CYP3A4 [4]; [6]): > 50000 nM

COc1ccc(-c2c(-c3ccc(C#N)c(F)c3)nc(N3C4CCC3CC(N)C4)n3ccnc23)cc1F (centres unmarked) [Example 120, 4-(5-(3-amino-8-azabicyclo[3.2.1]octane-8-yl)-8-(3-fluoro-4-methoxyphenyl)imidazolo[1,2-c]pyrimidin-7-yl)-2-fluorobenzonitrile]
IC50 (LSD1): 0.77 ± 0.43 nM | IC50 (NCI-H1417 cells; Homo sapiens, 168 h): 2.08 nM | IC50 (CYP3A4 [1]): 8930 nM | IC50 [2]: 7830 nM | F [3]: 14.4% | Cl [3]: 39.9 | AUC(0-inf) (in vivo): 310 ng·h/mL | Cmax (in vivo): 34.7 ng/mL | Vd (in vivo): 14.5 L/kg | half-life (in vivo): 4.82 h | Papp A→B at 120 min (in vitro): 2.88 ×10⁻⁶ cm/s | Papp B→A at 120 min (in vitro): 7.37 ×10⁻⁶ cm/s | efflux ratio at 120 min (in vitro): 2.56

Cc1noc2cc(-c3c(-c4ccc(C#N)c(F)c4)nc(N4CCC(N)CC4)n4ccnc34)c(F)cc12 [Example 125, 4-(5-(4-aminopiperidin-1-yl)-8-(5-fluoro-3-methylbenzo[d]isoxazol-6-yl)imidazolo[1,2-c]pyrimidin-7-yl)-2-fluorobenzonitrile]
IC50 (LSD1): 0.35 ± 0.09 nM | IC50 (NCI-H1417 cells; Homo sapiens, 168 h): 0.386 nM | Cl (Rat PK test (IV and PO)): 60.6 mL/min/kg | F (Rat PK test (IV and PO)): 21.8% | AUC(0-inf) (Rat PK test (IV and PO)): 323 ng·h/mL | Cmax (Rat PK test (IV and PO)): 65 ng/mL | half-life (Rat PK test (IV and PO)): 2.58 h | Vd (Rat PK test (IV and PO)): 14.7 L/kg | Papp A→B at 120 min (Caco-2 permeability test): 4.27 ×10⁻⁶ cm/s | Papp B→A at 120 min (Caco-2 permeability test): 25 ×10⁻⁶ cm/s | efflux ratio at 120 min (Caco-2 permeability test): 5.84 | IC50 [5, 7]: 9520 nM | IC50 (CYP3A4 [4]; [6]): 49900 nM

Cc1noc2cc(-c3sc(C(=O)N4C5CCC4CC(N)C5)nc3-c3ccc(C#N)c(F)c3)c(F)cc12 (centres unmarked) [Example 220, 4-(2-(3-amino-8-azabicyclo[3.2.1]octane-8-carbonyl)-5-(5-fluoro-3-methylbenzo[d]isoxazol-6-yl)thiazol-4-yl)-2-fluorobenzonitrile hydrochloride]
IC50 (LSD1): 0.42 ± 0.06 nM | IC50 (NCI-H1417 cells; Homo sapiens, 168 h): 1.32 nM | Papp A→B at 120 min (in vitro): 2.3 ×10⁻⁶ cm/s | Papp B→A at 120 min (in vitro): 6.21 ×10⁻⁶ cm/s | efflux ratio at 120 min (in vitro): 2.7

CS(=O)(=O)N1CCN(C(=O)c2cc(CCN[C@@H]3C[C@H]3c3ccc(F)cc3)nc(-c3ccc(-n4cccn4)cc3)n2)CC1 [Example 12, (2-(4-(1H-pyrazol-1-yl)phenyl)-6-(2-(((1R,2S)-2-(4-fluorophenyl)cyclopropyl)amino)ethyl)pyrimidin-4-yl) (4-(methylsulfonyl)piperazin-1-yl)methanone]
Papp A→B at 120 min (Caco-2 permeability test): 5.95 ×10⁻⁶ cm/s | Papp B→A at 120 min (Caco-2 permeability test): 6.92 ×10⁻⁶ cm/s | efflux ratio at 120 min (Caco-2 permeability test): 1.16 | IC50 [5]: 4690 nM | IC50 (CYP3A4 [4]): 5590 nM

N#CCn1ncc2cc(F)c(-c3sc(C(=O)N4C5CCC4CC(N)C5)cc3-c3ccc(C#N)c(F)c3)cc21 (centres unmarked) [Example 215, 4-(5-(3-amino-8-azabicyclo [3.2.1]octan-8-carbonyl)-2-(1-(cyanomethyl)-5-fluoro-1H-indazol-6-yl)thiophen-3-yl)-2-fluoro-benzonitrile]
IC50 (LSD1): 0.45 ± 0.05 nM | IC50 (NCI-H1417 cells; Homo sapiens, 168 h): 4.19 nM | IC50 [2]: 11400 nM

N#Cc1ccc(-c2nc(N3C4CCC3CC(N)C4)n3ccnc3c2-c2cc3c(cc2F)OCO3)cc1F (centres unmarked) [Example 175, 4-(5-(3-amino-8-azabicyclo[3.2.1]octane-8-yl)-8-(6-fluorobenzo[d] [1,3]dioxane-5- -yl)imidazolo [1,2-c]pyrimidin-7-yl)-2-fluorobenzonitrile hydrochloride]
IC50 (LSD1): 3.2 ± 2.1 nM | IC50 (NCI-H1417 cells; Homo sapiens, 168 h): 4.13 nM | IC50 (CYP3A4 [1]): 8080 nM

CS(=O)(=O)N1CCN(C(=O)c2cc(CCCN[C@@H]3C[C@H]3c3ccc(F)cc3)nc(-c3ccc(-n4cccn4)cc3)n2)CC1 [Example 257, (2-(4-(1H-pyrazol-1-yl)phenyl)-6-(3-((1R,2S)-2-(4-fluorophenyl)cyclopropyl)amino)pyrimidin-4-yl)(4-(methylsulfonyl)piperazin-1-yl)methanone]
Mean Papp A to B (Caco-2 cells): 1.54 10^−6 cm/s | Mean Papp B to A (Caco-2 cells): 4.55 10^−6 cm/s | IC50 [5, 7]: 2830 nM

CS(=O)(=O)N1CCN(c2cc(CCCN[C@@H]3C[C@H]3c3ccc(F)cc3)nc(-c3ccc(C#N)cc3)n2)CC1 [Example 261, 4-(4-(3-(1R,2S)-2-(4-fluorophenyl)cyclopropyl)amino)-6-(4-(methylsulfonyl)piperazin-1-yl)pyri midin-2-yl)benzonitrile formate]
IC50 (NCI-H1417 cells): 3.22 nM | Efflux Ratio (Caco-2 cells; Caco-2): 1.38 | Mean Papp A to B (Caco-2 cells): 0.49 10^−6 cm/s | Mean Papp B to A (Caco-2 cells): 0.67 10^−6 cm/s
